Measurements published in ChEMBL document CHEMBL5154688, “Design, Synthesis, and Characterization of I-BET567, a Pan-Bromodomain and Extra Terminal (BET) Bromodomain Oral Candidate” (J Med Chem, 2022).

Legend:
[1] = Unbound Cmax in SCID mouse xenografted with human NMC 11060 cells at 3 to 30 mg/kg, po for 20 days; format: ADME, organism-based; conditions: in vivo, 480 h, dose 3-30 mg/kg, time 20 day
[2] = Toxicity in SCID mouse xenografted with human NMC 11060 cells assessed as loss of body weight at 30 mg/kg, po for 20 days; format: organism-based; conditions: in vivo, 480 h, time 20 day
[3] = Unbound clearance in Beagle dog blood at 3 mg/kg, po or 1.0 mg/kg, iv by LC-MS/MS analysis; format: ADME, organism-based, Canis lupus familiaris; conditions: in vivo
[4] = Toxicity in SCID mouse xenografted with human NMC 11060 cells assessed as tolerability at 3 to 30 mg/kg, po for 20 days; format: organism-based; conditions: in vivo, 480 h, dose 3-30 mg/kg, time 20 day
[5] = target: T1, Bromodomain-containing protein 2 (Homo sapiens, UniProt P25440); assay: Binding affinity to BRD2 BD1 (unknown origin) assessed as dissociation constant
T1 sequence (P25440 whole entry): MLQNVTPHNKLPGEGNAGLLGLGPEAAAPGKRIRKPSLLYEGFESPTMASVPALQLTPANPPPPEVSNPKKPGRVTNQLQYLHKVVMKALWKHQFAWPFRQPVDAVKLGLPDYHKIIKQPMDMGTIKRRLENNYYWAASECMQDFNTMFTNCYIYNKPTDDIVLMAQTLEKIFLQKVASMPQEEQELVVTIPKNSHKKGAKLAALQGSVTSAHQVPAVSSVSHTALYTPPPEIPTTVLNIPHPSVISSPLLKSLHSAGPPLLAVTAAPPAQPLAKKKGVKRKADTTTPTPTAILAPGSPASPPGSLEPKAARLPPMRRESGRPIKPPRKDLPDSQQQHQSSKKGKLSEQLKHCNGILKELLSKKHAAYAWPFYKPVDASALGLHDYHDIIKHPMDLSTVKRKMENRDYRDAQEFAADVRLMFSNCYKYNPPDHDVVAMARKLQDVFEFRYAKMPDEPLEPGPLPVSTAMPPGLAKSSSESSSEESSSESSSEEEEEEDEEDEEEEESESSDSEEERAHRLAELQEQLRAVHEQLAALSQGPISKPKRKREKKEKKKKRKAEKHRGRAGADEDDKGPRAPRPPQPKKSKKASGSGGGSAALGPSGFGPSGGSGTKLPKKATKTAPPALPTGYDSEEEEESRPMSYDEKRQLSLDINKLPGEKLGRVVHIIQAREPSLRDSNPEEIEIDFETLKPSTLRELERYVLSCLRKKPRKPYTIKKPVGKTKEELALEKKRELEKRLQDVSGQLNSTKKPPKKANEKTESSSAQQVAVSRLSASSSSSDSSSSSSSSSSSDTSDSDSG

[6] = Antineoplastic activity against human NMC 11060 cells xenografted in SCID mouse assessed as reduction in tumor volume at 30 mg/kg, po for 20 days measured at 10 days of post randomization relative to control; format: functional; conditions: NMC 11060 cell, 480 h, time 20 day
[7] = Terminal half life in Beagle dog blood at 3 mg/kg, po or 1.0 mg/kg, iv by LC-MS/MS analysis; format: ADME, organism-based, Canis lupus familiaris; conditions: read-out: beta t1/2 (converted)
[8] = Antineoplastic activity against human NMC 11060 cells xenografted in SCID mouse assessed as reduction in tumor volume at 30 mg/kg, po for 20 days measured at 6 days of post randomization relative to control; format: functional; conditions: NMC 11060 cell, 480 h, time 20 day
[9] = Cmax in KLH-TNP-induced T-cell dependent immunization CD-1 mouse model at 30 mg/kg, po administered every third day for 14 days; format: ADME, organism-based; parameters: time 14 day, dose 30 mg/kg, route po; conditions: in vivo
[10] = Antineoplastic activity against human NMC 11060 cells xenografted in SCID mouse assessed as reduction in tumor volume at 30 mg/kg, po for 20 days measured at 15 days of post randomization relative to control; format: functional; conditions: NMC 11060 cell, 480 h, time 20 day
[11] = Oral bioavailability in Wistar Han rat blood at 3 mg/kg measured upto 24 hrs by LC-MS/MS analysis; format: ADME, organism-based
Mus musculus = assay: Antiinflammatory activity in KLH-TNP-induced T-cell dependent immunization CD-1 mouse model assessed as reduction in circulating IgG1 at 30 mg/kg, po administered daily for 14 days followed by administration of KLH-TNP after 1 hr; format: functional; conditions: CD-1, T-cell, 336 h, time 14 day
[12] = Cmax in KLH-TNP-induced T-cell dependent immunization CD-1 mouse model at 30 mg/kg, po administered every other day for 14 days; format: ADME, organism-based; parameters: dose 30 mg/kg, time 14 day, route po; conditions: in vivo
[13] = Terminal half life in Wistar Han rat blood at 3 mg/kg, po or 1.3 mg/kg, iv measured upto 24 hrs by LC-MS/MS analysis; format: ADME, organism-based; conditions: read-out: beta t1/2 (converted)
[14] = Antineoplastic activity against human NMC 11060 cells xenografted in SCID mouse assessed as reduction in tumor volume at 10 mg/kg, po for 20 days measured at 17 days of post randomization relative to control; format: functional; conditions: NMC 11060 cell, 480 h, time 20 day
[15] = target: Bromodomain-containing protein 3 (Homo sapiens, UniProt Q15059); assay: Binding affinity to BRD3 BD2 (unknown origin) assessed as dissociation constant
Sequence of Bromodomain-containing protein 3 (Q15059 whole entry): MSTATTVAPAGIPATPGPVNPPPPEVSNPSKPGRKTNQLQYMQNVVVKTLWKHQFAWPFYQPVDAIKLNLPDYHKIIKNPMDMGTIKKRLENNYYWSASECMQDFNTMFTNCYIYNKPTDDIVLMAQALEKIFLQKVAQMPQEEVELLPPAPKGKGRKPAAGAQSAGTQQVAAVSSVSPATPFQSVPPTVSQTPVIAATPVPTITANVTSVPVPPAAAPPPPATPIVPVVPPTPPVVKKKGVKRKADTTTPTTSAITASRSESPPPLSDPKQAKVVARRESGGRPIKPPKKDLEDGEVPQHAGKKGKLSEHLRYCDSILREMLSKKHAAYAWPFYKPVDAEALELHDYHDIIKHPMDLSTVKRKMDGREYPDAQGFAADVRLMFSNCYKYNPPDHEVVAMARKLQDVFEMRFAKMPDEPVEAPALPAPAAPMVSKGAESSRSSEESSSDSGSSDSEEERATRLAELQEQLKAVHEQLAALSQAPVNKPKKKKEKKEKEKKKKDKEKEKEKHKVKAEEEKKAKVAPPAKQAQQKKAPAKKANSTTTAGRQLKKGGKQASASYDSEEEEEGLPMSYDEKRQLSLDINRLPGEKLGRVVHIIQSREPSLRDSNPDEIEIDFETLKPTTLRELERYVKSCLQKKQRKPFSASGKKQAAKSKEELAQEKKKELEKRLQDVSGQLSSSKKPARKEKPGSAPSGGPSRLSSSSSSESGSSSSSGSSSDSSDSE

[16] = Antiproliferative activity against human NMC 11060 cells assessed as inhibition of proliferation; format: functional, cell-based; conditions: NUT midline carcinoma
[17] = target: T2, Bromodomain-containing protein 4 (Homo sapiens, UniProt O60885); assay: Inhibition of BRD4 BD2 (unknown origin) incubated for 30 mins in presence of fluorescent ligand by TR-FRET method
[18] = AUC(0 to 72 hrs) in KLH-TNP-induced T-cell dependent immunization CD-1 mouse model at 30 mg/kg, po administered every other day for 14 days; format: ADME, organism-based; parameters: dose 30 mg/kg, time 14 day, route po; conditions: in vivo
[19] = Oral bioavailability in Beagle dog blood at 3 mg/kg by LC-MS/MS analysis; format: ADME, organism-based, Canis lupus familiaris
[20] = Intrinsic clearance in human hepatocytes measured after 120 mins by LC-MS/MS analysis; format: ADME, cell-based, Hepatocyte; conditions: 2 h
[21] = target: T2, Bromodomain-containing protein 4; assay: Binding affinity to BRD4 BD1 (unknown origin) assessed as dissociation constant
[22] = target: T2, Bromodomain-containing protein 4; assay: Binding affinity to BRD4 BD2 (unknown origin) assessed as dissociation constant
[23] = Renal clearance in Beagle dog at 3 mg/kg, po or 1.0 mg/kg, iv by LC-MS/MS analysis; format: ADME, organism-based, Canis lupus familiaris; conditions: in vivo
[24] = Antineoplastic activity against human NMC 11060 cells xenografted in SCID mouse assessed as reduction in tumor volume at 30 mg/kg, po for 20 days measured at 17 days of post randomization relative to control; format: functional; conditions: NMC 11060 cell, 480 h, time 20 day
[25] = Volume of distribution at steady state in Wistar Han rat blood at 3 mg/kg, po or 1.3 mg/kg, iv measured upto 24 hrs by LC-MS/MS analysis; format: ADME, organism-based; conditions: in vivo
[26] = Antineoplastic activity against human NMC 11060 cells xenografted in SCID mouse assessed as reduction in tumor volume at 10 mg/kg, po for 20 days measured at 3 days of post randomization relative to control; format: functional; conditions: NMC 11060 cell, 480 h, time 20 day
[27] = Toxicity in KLH-TNP-induced T-cell dependent immunization CD-1 mouse model assessed as tolerability at 30 mg/kg, po administered daily for 14 days; format: organism-based; conditions: in vivo, 336 h, time 14 day
[28] = Antineoplastic activity against human NMC 11060 cells xenografted in SCID mouse assessed as reduction in tumor volume at 10 mg/kg, po for 20 days measured at 13 days of post randomization relative to control; format: functional; conditions: NMC 11060 cell, 480 h, time 20 day
[29] = Antineoplastic activity against human NMC 11060 cells xenografted in SCID mouse assessed as reduction in tumor volume at 10 mg/kg, po for 20 days measured at 10 days of post randomization relative to control; format: functional; conditions: NMC 11060 cell, 480 h, time 20 day
CREB-binding protein = CREB-binding protein (Homo sapiens, UniProt Q92793); assay: Binding affinity to CREBBP (unknown origin) assessed as dissociation constant
Sequence of CREB-binding protein (Q92793 whole entry): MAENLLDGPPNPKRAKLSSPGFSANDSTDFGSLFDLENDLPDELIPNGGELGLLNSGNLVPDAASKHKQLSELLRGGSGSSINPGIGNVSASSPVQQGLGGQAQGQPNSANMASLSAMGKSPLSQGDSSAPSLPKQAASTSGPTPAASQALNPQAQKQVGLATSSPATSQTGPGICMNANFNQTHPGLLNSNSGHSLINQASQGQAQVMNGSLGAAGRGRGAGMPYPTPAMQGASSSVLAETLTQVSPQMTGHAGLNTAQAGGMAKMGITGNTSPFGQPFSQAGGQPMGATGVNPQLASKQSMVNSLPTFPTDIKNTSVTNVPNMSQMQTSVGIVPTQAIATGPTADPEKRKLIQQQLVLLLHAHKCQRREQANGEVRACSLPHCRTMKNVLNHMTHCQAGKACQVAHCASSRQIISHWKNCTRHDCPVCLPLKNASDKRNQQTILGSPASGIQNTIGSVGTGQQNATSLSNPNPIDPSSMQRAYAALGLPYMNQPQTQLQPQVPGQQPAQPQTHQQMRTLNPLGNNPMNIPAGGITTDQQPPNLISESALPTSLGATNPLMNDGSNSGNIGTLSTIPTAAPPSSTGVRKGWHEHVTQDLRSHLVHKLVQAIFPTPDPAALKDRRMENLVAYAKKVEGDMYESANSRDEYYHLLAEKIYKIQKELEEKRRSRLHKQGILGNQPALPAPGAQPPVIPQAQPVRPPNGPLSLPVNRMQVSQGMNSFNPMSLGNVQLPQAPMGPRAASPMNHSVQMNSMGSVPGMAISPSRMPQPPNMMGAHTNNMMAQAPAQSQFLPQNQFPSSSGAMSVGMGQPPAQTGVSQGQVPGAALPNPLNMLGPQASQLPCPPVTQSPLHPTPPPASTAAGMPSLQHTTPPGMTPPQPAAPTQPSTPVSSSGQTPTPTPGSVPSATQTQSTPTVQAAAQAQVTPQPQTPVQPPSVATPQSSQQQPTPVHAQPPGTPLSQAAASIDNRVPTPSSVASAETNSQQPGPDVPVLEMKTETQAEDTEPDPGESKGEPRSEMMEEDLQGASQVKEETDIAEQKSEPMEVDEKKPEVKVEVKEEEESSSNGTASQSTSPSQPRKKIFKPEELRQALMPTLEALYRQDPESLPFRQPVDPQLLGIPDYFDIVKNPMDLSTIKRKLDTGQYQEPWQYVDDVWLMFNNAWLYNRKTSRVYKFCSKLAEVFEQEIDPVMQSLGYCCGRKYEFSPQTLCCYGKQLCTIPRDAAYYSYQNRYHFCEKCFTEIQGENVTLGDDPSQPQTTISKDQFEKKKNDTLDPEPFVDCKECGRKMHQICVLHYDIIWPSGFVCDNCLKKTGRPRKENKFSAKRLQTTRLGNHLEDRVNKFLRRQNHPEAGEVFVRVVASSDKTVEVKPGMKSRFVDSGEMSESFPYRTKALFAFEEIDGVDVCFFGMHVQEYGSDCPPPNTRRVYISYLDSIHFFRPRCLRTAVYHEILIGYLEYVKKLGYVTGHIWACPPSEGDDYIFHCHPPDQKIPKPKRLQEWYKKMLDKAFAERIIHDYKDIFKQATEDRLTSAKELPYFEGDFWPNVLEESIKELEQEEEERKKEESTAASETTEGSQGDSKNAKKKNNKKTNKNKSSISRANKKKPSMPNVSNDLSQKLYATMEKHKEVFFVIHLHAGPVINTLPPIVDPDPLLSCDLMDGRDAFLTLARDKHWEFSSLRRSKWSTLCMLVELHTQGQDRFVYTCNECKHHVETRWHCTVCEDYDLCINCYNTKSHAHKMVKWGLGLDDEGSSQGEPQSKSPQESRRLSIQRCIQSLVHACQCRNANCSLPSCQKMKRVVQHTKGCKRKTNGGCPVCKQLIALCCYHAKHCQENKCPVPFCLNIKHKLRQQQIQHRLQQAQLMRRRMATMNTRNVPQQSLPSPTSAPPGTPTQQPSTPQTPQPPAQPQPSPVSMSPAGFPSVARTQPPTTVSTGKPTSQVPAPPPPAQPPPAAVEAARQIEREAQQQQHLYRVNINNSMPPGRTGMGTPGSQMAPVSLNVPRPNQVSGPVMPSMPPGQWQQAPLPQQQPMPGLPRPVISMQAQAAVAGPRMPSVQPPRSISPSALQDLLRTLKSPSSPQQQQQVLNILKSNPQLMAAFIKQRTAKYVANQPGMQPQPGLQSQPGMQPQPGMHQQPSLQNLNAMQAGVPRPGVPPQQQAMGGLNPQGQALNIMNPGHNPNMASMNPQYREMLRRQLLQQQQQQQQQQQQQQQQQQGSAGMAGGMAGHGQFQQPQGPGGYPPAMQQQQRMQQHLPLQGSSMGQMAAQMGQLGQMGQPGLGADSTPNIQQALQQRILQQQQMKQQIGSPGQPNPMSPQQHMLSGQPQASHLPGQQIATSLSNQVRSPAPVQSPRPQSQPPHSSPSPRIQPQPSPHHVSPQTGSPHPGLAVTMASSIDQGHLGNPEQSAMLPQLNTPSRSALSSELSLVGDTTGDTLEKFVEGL

[30] = target: T1, Bromodomain-containing protein 2; assay: Binding affinity to BRD2 BD2 (unknown origin) assessed as dissociation constant

- fCmax [1]: 2 µM
- CL free [3]: 20 mL/min/kg
- Kd [5]: 39.8 nM
- half-life [7]: 108 min
- Cmax [9]: 8.5 µM
- bioavailability [11]: 99%
- Cmax [12]: 8.5 µM
- half-life [13]: 96 min
- Kd [15]: 6.31 nM
- IC50 [17]: 63.1 nM
- AUC at 336 h [18]: 69 µM·h
- bioavailability [19]: 98%
- CLH [20]: < 0.87 mL/min/g
- Kd [21]: 25.1 nM
- Kd [22]: 5.01 nM
- CL renal [23]: 6.9 mL/min/kg
- Vdss [25]: 2.4 L/kg
- Kd (CREB-binding protein): 2510 nM
- Kd [30]: 7.94 nM
SMILES: CC(=O)N1c2ccc(C(N)=O)cc2[C@H](Nc2ncc(Cl)cn2)C[C@@H]1C
- Activity [2]: 19.6%
- Activity [4]: Non-Toxic
- inhibition in vivo at 30 mg/kg [6]: 83%
- inhibition in vivo at 30 mg/kg [8]: 70%
- inhibition in vivo at 30 mg/kg [10]: 92%
- inhibition in vivo at 30 mg/kg (Mus musculus): 98%
- inhibition in vivo at 10 mg/kg [14]: 59%
- IC50 [16]: 630 nM
- inhibition in vivo at 30 mg/kg [24]: 93%
- inhibition in vivo at 10 mg/kg [26]: 45%
- Activity [27]: Non-Toxic
- inhibition in vivo at 10 mg/kg [28]: 56%
- inhibition in vivo at 10 mg/kg [29]: 69%
